# According to patent US20260028390A1, “ALPHA1-ANTITRYPSIN FOR USE IN THE TREATMENT OF DISEASES OR DISORDERS OF THE NERVOUS SYSTEM SUCH AS CHRONIC INFLAMMATORY DEMYELINATING POLYNEUROPATHY” (Ageronix SA, priority 2022, published 2026):
# Tested on: HMC3-MHCII^Luc cells
# Assay: RNAseq differential gene expression / GSEA in AAT-treated resting and IFNγ-activated microglia
# Assay type: cell-based, human
# Details: M2 gene
# Procedure: • A) Human microglial HMC3-MHCII^Luc cells were plated at day 0, presented IFNγ at day 1 until day 2 and measurement of the luciferase activity and cell viability were done at day 4. • B) AATs were applied from day 0 to day 4 on HMC3-MHCII^Luc cells. Activation was measured by the activity of MHCII-driven luciferase and represented as percentage of IFNγ control for all conditions. All conditions were performed in triplicates, error bars represent standard deviation. • C) Bulk RNA extraction was performed on the same HMC3-MHCII^Luc cultures. Quality control (QC) were applied to RNA before sequencing. QC of the sequencing was done prior to mapping on the human genome. Mapped reads were counted, and differential gene expression was measured between the conditions (see Table 1-10). (FIGS. 3A, 3B and 3C)
# RNAseq data from plasma-derived and recombinant AATs were pooled, normalized and analyzed through Gene Set Enrichment Analysis (GSEA) (https://www.gsea-msigdb.org/gsea/index.jsp; Subramanian, A., et al. Proc. Natl. Acad. Sci. USA, 102 (43): 15545-15550, 2005.). […] Importantly, both the IFNγ and inflammatory responses were dampened by AAT. However, the downregulation of the inflammatory response genes in (C) was just under significance.
# Tables of genes related to antigen presentation (Table 1), cytokine signaling (Table 2), interferon signaling (Table 3) and complement activation (Table 4). Inflammatory top gene (FC>2; p-value<0.05; left column), were defined by differential expression between untreated and IFNγ-treated cells (inflammation; middle column).
# HMC3-MHCII^Luc and HMC3-MHCII^Luc; Ubi^AAT (endogenous AAT) cell lines were seeded into 96-well plates at a density of approximately 2500 cells/well. HMC3-MHCII^Luc cell line was plated and was added plasma-derived AAT and recombinant AATs (produced in CHO cells, AAT 1 and AAT 2) 3h later and at ranged concentration (1; 10 or 25 μM). 24h after, still in the presence of exogenous or endogenous AAT, microglial activation was induced with a 24h-long IFNγ presentation (10 ng/ml). IFNγ was then removed and both HMC3-MHCII^Luc and HMC3-MHCII^Luc; Ubi^AAT cells were cultured for 48h in exogenous or endogenous presence of AAT before cell cultures were beeing assessed for cell viability and activation (See FIGS. 3A, 3B, 3C and 4A,4B, 4C).
# RNA samples from plasma-derived AAT and recombinant AAT Nr. 2 were checked for quality (2100 Bioanalyzer, Agilent) and libraries prepared with Truseq RNA Library Kit (Illumina, RS-122-2001). Libraries were sequenced (HiSeq 4000, Illumina) controlled for the quality of sequencing (FastQC), mapped on the human genome (STAR v.2.7.0f; UCSC hg38), reads were counted (HTSeq v0.9.1) and the differential expression analysis was performed with the R/Bioconductor package (edgeR 1.30.1.).
substance,measurement,setting,value
alpha1-antitrypsin (AAT) protein,APLP1 expression FC,"FC AAT, resting microglia",1.41
same,APRT expression FC,"FC AAT, resting microglia",1.16
same,BAIAP2 expression FC,"FC AAT, resting microglia",1.45
same,C16orf45 expression FC,"FC AAT, resting microglia",1.31
same,CHPF expression FC,"FC AAT, resting microglia",1.80
same,COL1A1 expression FC,"FC AAT, resting microglia",1.58
same,COL11A1 expression FC,"FC AAT, resting microglia",1.14
same,DBN1 expression FC,"FC AAT, resting microglia",1.42
same,ENG expression FC,"FC AAT, resting microglia",1.29
same,EXTL1 expression FC,"FC AAT, resting microglia",2.19
same,FEZ1 expression FC,"FC AAT, resting microglia",1.45
same,FGD3 expression FC,"FC AAT, resting microglia",1.76
same,FOXC1 expression FC,"FC AAT, resting microglia",1.26
same,FZD2 expression FC,"FC AAT, resting microglia",1.39
same,FZD7 expression FC,"FC AAT, resting microglia",1.24
same,GADD45GIP1 expression FC,"FC AAT, resting microglia",1.55
same,GREM1 expression FC,"FC AAT, resting microglia",1.69
same,GUK1 expression FC,"FC AAT, resting microglia",1.57
same,HSPG2 expression FC,"FC AAT, resting microglia",1.58
same,IGFBP2 expression FC,"FC AAT, resting microglia",1.63
same,ITGA11 expression FC,"FC AAT, resting microglia",1.65
same,MARCH4 expression FC,"FC AAT, resting microglia",1.28
same,MBOAT7 expression FC,"FC AAT, resting microglia",1.44
same,METRN expression FC,"FC AAT, resting microglia",2.23
same,MIF expression FC,"FC AAT, resting microglia",1.83
same,MMP1 expression FC,"FC AAT, resting microglia",2.51
same,MOSPD3 expression FC,"FC AAT, resting microglia",1.51
same,MXRA8 expression FC,"FC AAT, resting microglia",1.40
same,NID1 expression FC,"FC AAT, resting microglia",1.16
same,NTN4 expression FC,"FC AAT, resting microglia",1.25
same,PAPPA expression FC,"FC AAT, resting microglia",1.24
same,PLEC expression FC,"FC AAT, resting microglia",1.69
same,PLTP expression FC,"FC AAT, resting microglia",1.28
same,PREX1 expression FC,"FC AAT, resting microglia",1.25
same,PRSS36 expression FC,"FC AAT, resting microglia",1.58
same,PTPRS expression FC,"FC AAT, resting microglia",1.27
same,RAB3IL1 expression FC,"FC AAT, resting microglia",1.55
same,RASA4B expression FC,"FC AAT, resting microglia",1.46
same,RASAL1 expression FC,"FC AAT, resting microglia",1.52
same,SART1 expression FC,"FC AAT, resting microglia",1.44
same,SEMA3B expression FC,"FC AAT, resting microglia",1.50
same,SERPINH1 expression FC,"FC AAT, resting microglia",1.21
same,SLC22A5 expression FC,"FC AAT, resting microglia",1.22
same,STC2 expression FC,"FC AAT, resting microglia",1.42
same,TAGLN expression FC,"FC AAT, resting microglia",1.37
same,TBCD expression FC,"FC AAT, resting microglia",1.26
same,TEKT4P2 expression FC,"FC AAT, resting microglia",2.46
same,TGFB1I1 expression FC,"FC AAT, resting microglia",1.31
same,TNFRSF1B expression FC,"FC AAT, resting microglia",1.46
same,TTC9 expression FC,"FC AAT, resting microglia",1.65
same,ZIC2 expression FC,"FC AAT, resting microglia",2.42
same,AHNAK2 expression FC,FC inflammation + AAT,1.40
same,ANPEP expression FC,FC inflammation + AAT,1.25
same,ARHGDIB expression FC,FC inflammation + AAT,1.28
same,BAIAP2 expression FC,FC inflammation + AAT,1.24
same,BGN expression FC,FC inflammation + AAT,1.27
same,CHPF expression FC,FC inflammation + AAT,1.58
same,CLIP3 expression FC,FC inflammation + AAT,1.25
same,CLMP expression FC,FC inflammation + AAT,1.22
same,COL11A1 expression FC,FC inflammation + AAT,1.16
same,DBN1 expression FC,FC inflammation + AAT,1.31
same,ENG expression FC,FC inflammation + AAT,1.35
same,EXTL1 expression FC,FC inflammation + AAT,1.78
same,FADS2 expression FC,FC inflammation + AAT,1.20
same,FAT1 expression FC,FC inflammation + AAT,1.34
same,FEZ1 expression FC,FC inflammation + AAT,1.34
same,FGD3 expression FC,FC inflammation + AAT,2.31
same,FZD2 expression FC,FC inflammation + AAT,1.37
same,FZD7 expression FC,FC inflammation + AAT,1.36
same,GADD45GIP1 expression FC,FC inflammation + AAT,1.51
same,GATA6 expression FC,FC inflammation + AAT,1.47
same,GREM1 expression FC,FC inflammation + AAT,1.56
same,GUK1 expression FC,FC inflammation + AAT,1.31
same,HCK expression FC,FC inflammation + AAT,1.44
same,HLA-DRB5 expression FC,FC inflammation + AAT,2.09
same,HSPG2 expression FC,FC inflammation + AAT,1.41
